Molecular target: T1, Recombinant human LTC4 synthase (Homo sapiens, UniProt Q16873)
T1 construct: made in house; host or cells: Pichia pastoris ('Piccia pastoralis' [sic])
T1 sequence (Q16873 1-150): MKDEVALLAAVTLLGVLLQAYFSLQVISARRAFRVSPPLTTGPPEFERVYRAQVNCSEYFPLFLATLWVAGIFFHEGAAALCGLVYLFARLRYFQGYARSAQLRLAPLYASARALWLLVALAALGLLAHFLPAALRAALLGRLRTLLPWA
Test: Biological in vitro assay: LTC4 synthase conversion of LTA4 to LTC4, HTRF detection
Type: biochemical
Conditions: for % inhibition: total concentration of title compound in the assay 10 μM
Experimental: In the assay, LTC4 synthase catalyses the reaction where the substrate LTA4 is converted to LTC4. Recombinant human LTC4 synthase is expressed in Piccia pastoralis and the purified enzyme is dissolved in 25 mM tris-buffer pH 7.8 supplemented with 0.1 mM glutathione (GSH) and stored at −80° C. The assay is performed in phosphate buffered saline (PBS) pH 7.4 and 5 mM GSH in 384-well plates.
The following is added chronologically to each well:
1. 48 μL LTC4 synthase in PBS with 5 mM GSH. The total protein concentration in this solution is 0.5 μg/mL. 2. 1 μL inhibitor in DMSO (final concentration 10 μM). 3. Incubation of the plate at room temperature for 10 min. 4. 1 μL LTA4 (final concentration 2.5 μM). 5. Incubation of the plate at room temperature for 5 min. 6. 10 μL of the incubation mixture is analysed using homogenous time resolved fluorescent (HTRF) detection.

SMILES	IC50 [nM]	% inhibition [%]
Cc1cc2ncn(-c3ccc(C(=O)c4ccc(N(C)c5ccc(Cl)cc5)cc4)cc3C(=O)O)c2cc1C [Example 1, 5-{4-[(4-Chlorophenyl)(methyl)amino]benzoyl}-2-(5,6-dimethyl-1-benzimidazolyl)-benzoic acid]	288	97
CN(c1ccc(Cl)cc1)c1ccc(C(=O)c2ccc(-n3cc(-c4ccccc4)nn3)c(C(=O)O)c2)cc1 [Example 2:1, 5-{4-[(4-Chlorophenyl)(methyl)amino]benzoyl}-2-(4-phenyl-1,2,3-triazol-1-yl)-benzoic acid]	326	99
CN(c1ccc(Cl)cc1)c1ccc(C(=O)c2ccc(-n3nncc3-c3ccccc3)c(C(=O)O)c2)cc1 [Example 3:1, 5-{4-[(4-Chlorophenyl)(methyl)amino]benzoyl}-2-(5-phenyl-1,2,3-triazol-1-yl)-benzoic acid]	154	100
CN(c1ccc(Cl)cc1)c1ccc(C(=O)c2ccc(-n3nncc3-c3cccc(Cl)c3)c(C(=O)O)c2)cc1 [Example 3:2, 5-{4-[(4-Chlorophenyl)(methyl)amino]benzoyl}-2-[5-(3-chlorophenyl)-1,2,3-triazol-1-yl]benzoic acid]	36	100

More lines, now with the values ahead:

IC50 [nM]	% inhibition [%]	SMILES
214	99	CN(c1ccc(Cl)cc1)c1ccc(C(=O)c2ccc(-n3cc(-c4cccc(Cl)c4)nn3)c(C(=O)O)c2)cc1 [Example 2:2, 5-{4-[(4-Chlorophenyl)(methyl)amino]benzoyl}-2-[4-(3-chlorophenyl)-1,2,3-triazol-1-yl]benzoic acid]
217		CN(c1ccc(Cl)cc1)c1ccc(C(=O)c2ccc(-c3nccn3-c3ccccc3)c(C(=O)O)c2)nc1 [Example 9, 5-{5-[(4-Chlorophenyl)(methyl)amino]picolinoyl}-2-(1-phenylimidazol-2-yl)benzoic acid]

— US20120035217A1, “Bis Aromatic Compounds for Use as LTC4 Synthase Inhibitors” (BIOLIPOX AB, priority 2009, published 2012)
